Patent publication US20050107289A1, “Anti-microbial peptides and compositions” (priority 2001, published 2005)
Converted amounts (≈) assume the structure as drawn. Where a name gives a salt, the structure may show the parent alone. Read-outs that look alike come from different tables or passages of the source. Non-standard residues stand in square brackets, D forms with d. Residues, ends and D or L forms follow the SMILES beside them.

Key:
E. coli (K12) = experiment: microbe, parasite or virus in culture; assay type: cell-based, Escherichia coli; conditions: for MIC: Escherichia coli, MHII broth, read-out: E. coli (K12) MIC
Procedure: (§1) The antimicrobial activity of the peptides was determined using a broth dilution assay essentially as descried in the guidelines of the National Committee for […] (NCCLS) [National Committee for Clinical Laboratory Standards. Methods for dilution antimicrobial susceptibility tests for bacteria that grow aerobically. Fourth edition. Approved Standard (1997). Document M7-A4. […] The microdilution method has the advantages of requiring less amount of peptide for each assay and the possibility of multiple simultaneous inoculations and was used in most studies. Several of the strains of bacteria tested are further described in Table 3.
(§2) Preparation of peptide solutions. Stock peptide solutions were prepared in 5% DMSO in aq. sucrose (9%). Determination of peptide concentrations was done by quantitative HPLC analysis using known concentrations of internal standards and/or by measuring UV absorption of tryptophane-containing peptide solutions in H2O (λ=280 εTrp: 5690). Serial 2-fold dilutions were made in the above DMSO/aq. sucrose (9%) mixture with concentrations ranging approximately 400-2 μg/ml and aliquots were dispensed in test tubes (100 μl) for the macrodilution test or in microtiter plates (20 μl) for the microdilution assays.
(§3) Inoculum preparation. Overnight cultures of different microorganisms grown in suitable media were diluted 4000 times to an approximate inoculum size of 2.5×10^5 cfu/ml.
(§4) Macrodilution method. Macrodilution methods were performed using procedures similar to those described in the National Committee for Clinical Laboratory Standards. Methods for dilution antimicrobial susceptibility tests for bacteria that grow aerobically. Fourth edition. Approved Standard (1997). Document M7-A4. (NCCLS,Villanova, Pa., 1997). Two ml aliquots of the above inoculum were dispensed to test tubes containing different peptide solutions.
(§5) Microdilution method. Microdilution methods were performed using procedures similar to those described in the National Committee for Clinical Laboratory Standards. Methods for dilution antimicrobial susceptibility tests for bacteria that grow aerobically. Fourth edition. Approved Standard (1997). Document M7-A4.

[1] = tested on: E. coli (EL744) K12 (tolC::kan); experiment: microbe, parasite or virus in culture; assay type: cell-based, Escherichia coli; conditions: for MIC: Escherichia coli, read-out: E. coli (EL744) K12 (tolC::kan) MIC; for E. coli (EL744) K12 (tolC::kan) MIC: MHII broth
Procedure: as §1, §2, §3, §4, §5

murine red blood cells = experiment: Red blood cell hemolysis; assay type: cell-based, mouse
Summary of the method: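 Washed murine erythrocytes at 5% in saline with 10% FBS were exposed to serial peptide dilutions for 30 min at 37° C. Supernatant absorbance at 560 nm was read, with saline as 0% and 1% Triton X-100 as 100% hemolysis.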

S. aureus ATCC 33592 = experiment: microbe, parasite or virus in culture; assay type: cell-based, Staphylococcus aureus; conditions: for MIC: Staphylococcus aureus
Procedure: as §1, §2, §3, §4, §5

E. faecalis ATCC 51299 = experiment: microbe, parasite or virus in culture; assay type: cell-based, Enterococcus faecalis; conditions: for MIC: Enterococcus faecalis
Procedure: as §1, §2, §3, §4, §5

H. influenzae ATCC 49247 = experiment: microbe, parasite or virus in culture; assay type: cell-based, Hemophilus influenzae; conditions: for MIC: Haemophilus influenzae, ATCC49247, HTM, read-out: H. influenzae ATCC 49247 MIC
Procedure: as §1, §2, §3, §4, §5

E. faecium SP180 = experiment: microbe, parasite or virus in culture; assay type: cell-based, Enterococcus faecium; conditions: for MIC: Enterococcus faecium
Procedure: as §1, §2, §3, §4, §5

[2] = tested on: S. aureus (MRSA) ATCC 33591; assay type: cell-based, Staphylococcus aureus; conditions: Table 9; media b: cation adjusted Meuller Hinton broth (MHBII)
Summary of the method: (§6)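 Broth macro- or microdilution MIC per NCCLS M7-A4. Peptides were serially 2-fold diluted in 5% DMSO/9% aqueous sucrose, about 400–2 μg/ml (dilution-series concentrations). Overnight cultures were diluted 4000-fold to an inoculum of about 2.5×10^5 cfu/ml.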

[3] = tested on: vancomycin-resistant Enterococus faecalis (VRE)(ATCC 51575); assay type: cell-based, Enterococcus faecalis; set-up: key to VRE (in vitro activity): peptide concentration in μg/ml (broth dilution assay); conditions: Table 9; media c: Brain Heart Infusion (BHI)
Summary of the method: as §6

[4] = Single channel conductance in planar lipid membranes; conditions: for rate of channel mediated K+ transport / observed conductance: 500 mM KCl; for observed conductance: peptide about 30 mM in the subphase; for transport speed relative to gramicidin A: similar conditions
Procedure: The ion transport properties of tetrapeptides cyclo[(β-Trp)4] and cyclo[(β-Trp-β-Leu)2], synthesized via established protocols, were studied in liposome-based assays and by single channel conductance measurements in planar lipid membranes. The observed conductance in 500 mM KCl with peptide concentrations of about […] in the subphase is 56 pS, corresponding to the rates of channel mediated K^+ transport of 1.9×10^7 ions s^−1 for both tetrapeptides.

NC[C@H]1O[C@H](O[C@H]2[C@H](O)[C@@H](O[C@H]3O[C@H](CO)[C@@H](O)[C@H](N)[C@H]3O)[C@H](N)C[C@@H]2N)[C@H](O)[C@@H](O)[C@@H]1O [Kanamycin, reference compound]
MIC (E. coli (K12)): 4 mg/L (≈ 8.26 µM) | MIC [1]: > 128 mg/L | RBC Hemolysis (HD50) (murine red blood cells; mouse, 30 min): >600 | MIC (S. aureus ATCC 33592; ATCC33592, read-out: S. aureus ATCC 33592 MIC): > 128 mg/L | MIC (E. faecalis ATCC 51299; ATCC51299, read-out: E. faecalis ATCC 51299 MIC): > 128 mg/L | MIC (H. influenzae ATCC 49247): 4 mg/L (≈ 8.26 µM) | MIC (E. faecium SP180; SP180, read-out: E. faecium SP180 MIC): > 128 mg/L | MRSA (in vitro activity) [2]: 150 | VRE (in vitro activity) [3]: >600

CCn1cc(C(=O)O)c(=O)c2cc(F)c(N3CCNCC3)cc21 [Norfloxacin, reference compound]
MIC (E. coli (K12)): 0.06 mg/L (≈ 0.188 µM) | MIC [1]: 0.016 mg/L (≈ 0.0501 µM) | RBC Hemolysis (HD50) (murine red blood cells; mouse, 30 min): >360 | MIC (S. aureus ATCC 33592; ATCC33592, MHII broth, read-out: S. aureus ATCC 33592 MIC): 0.5 mg/L (≈ 1.57 µM) | MIC (E. faecalis ATCC 51299; ATCC51299, BHI broth, read-out: E. faecalis ATCC 51299 MIC): 2 mg/L (≈ 6.26 µM) | MIC (H. influenzae ATCC 49247): 0.06 mg/L (≈ 0.188 µM) | MIC (E. faecium SP180; SP180, BHI broth, read-out: E. faecium SP180 MIC): 32 mg/L (≈ 100 µM) | MRSA (in vitro activity) [2]: <2.8 | VRE (in vitro activity) [3]: <2.8

CC(C)C[C@H]1NC(=O)[C@H](CCCCN)NC(=O)[C@@H](CCCCN)NC(=O)[C@H](Cc2c[nH]c3ccccc23)NC(=O)[C@@H](CC(C)C)NC(=O)[C@H](Cc2c[nH]c3ccccc23)NC1=O [[KKLWLW]-HCl, cyclo-(D-Lys-Lys-D-Leu-Trp-D-Leu-Trp)] (cyclo(K[dL]W[dL]W[dK]))
E. coli (K12) MIC (E. coli (K12)): >128 mg/L | E. coli (EL744) K12 (tolC::kan) MIC [1]: 32 mg/L | S. aureus ATCC 33592 MIC (S. aureus ATCC 33592): 32 mg/L | E. faecalis ATCC 51299 MIC (E. faecalis ATCC 51299): >128 mg/L | H. influenzae ATCC 49247 MIC (H. influenzae ATCC 49247): >128 mg/L | E. faecium SP180 MIC (E. faecium SP180; SP180): 16 mg/L

CC(C)C[C@H]1NC(=O)[C@H](Cc2c[nH]c3ccccc23)NC(=O)[C@@H](CCCCN)NC(=O)[C@H](CCCNC(=N)N)NC(=O)[C@@H](CCCNC(=N)N)NC(=O)[C@H](Cc2c[nH]c3ccccc23)NC(=O)[C@@H](CC(C)C)NC(=O)[C@H](Cc2c[nH]c3ccccc23)NC1=O [[RRKWLWLW]-HCl, cyclo-(D-Arg-Arg-D-Lys-Trp-D-Leu-Trp-D-Leu-Trp)] (cyclo([dR]R[dK]W[dL]W[dL]W))
E. coli (K12) MIC (E. coli (K12)): 32 mg/L | RBC Hemolysis (HD50) (murine red blood cells): 70 | S. aureus ATCC 33592 MIC (S. aureus ATCC 33592): 8 mg/L | E. faecalis ATCC 51299 MIC (E. faecalis ATCC 51299): 8 to 16 mg/L | H. influenzae ATCC 49247 MIC (H. influenzae ATCC 49247): 32 to 64 mg/L | E. faecium SP180 MIC (E. faecium SP180; SP180): 4 mg/L | MRSA (in vitro activity) [2]: 9 | VRE (in vitro activity) [3]: 9

CC(C)C[C@H]1NC(=O)[C@H](CCCNC(=N)N)NC(=O)[C@@H](CCCNC(=N)N)NC(=O)[C@H](Cc2c[nH]c3ccccc23)NC(=O)[C@@H](CC(C)C)NC(=O)[C@H](Cc2c[nH]c3ccccc23)NC1=O [[RRLWLW]-HCl, cyclo-(D-Arg-Arg-D-Leu-Trp-D-Leu-Trp)] (cyclo(R[dL]W[dL]W[dR]))
E. coli (K12) MIC (E. coli (K12)): 16 mg/L | E. coli (EL744) K12 (tolC::kan) MIC [1]: 8 mg/L | S. aureus ATCC 33592 MIC (S. aureus ATCC 33592): 32 mg/L | E. faecalis ATCC 51299 MIC (E. faecalis ATCC 51299): 32 to 64 mg/L | H. influenzae ATCC 49247 MIC (H. influenzae ATCC 49247): 8 to 16 mg/L | E. faecium SP180 MIC (E. faecium SP180; SP180): 8 to 16 mg/L

cyclo[(β-Trp)4]
rate of channel mediated K+ transport [4]: 1.9×10^7 ions s^−1 | observed conductance [4]: 56 pS | transport speed relative to gramicidin A [4]: more than twice

cyclo[(β-Trp-β-Leu)2]
rate of channel mediated K+ transport [4]: 1.9×10^7 ions s^−1 | observed conductance [4]: 56 pS | transport speed relative to gramicidin A [4]: more than twice
